Patent US20100267561A1, “HERBICIDAL PYRIDAZINONE DERIVATIVES” (priority 2007, published 2010)
Like-named read-outs stand apart in the source and are kept apart here.

How the values were obtained:
Type in all cases: in vivo
[1] = tested on: morningglory (Ipomoea coccinea); assay: Test B pre-/postemergence plant response; conditions: for pest or weed control at 31 g/ha / pest or weed control at 62 g/ha: Ipomoea, read-out: Plant response rating, Morningglory; for pest or weed control at 31 g/ha: 31 g ai/ha; for pest or weed control at 62 g/ha: 62 g ai/ha, 100 complete control
Method in brief: (§1)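 Preemergence and postemergence (plants 2-18 cm, 1- to 4-leaf stage) applications used test chemicals in a non-phytotoxic solvent with surfactant. Plants were held in a greenhouse 13 to 15 days, then rated visually against controls on a 0-100 scale (0 no effect, 100 complete control).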

[2] = tested on: cocklebur (Xanthium strumarium); assay: Test B pre-/postemergence plant response; conditions: for pest or weed control at 31 g/ha: 31 g ai/ha; for pest or weed control at 62 g/ha: 62 g ai/ha, 100 complete control
Method in brief: as §1

[3] = tested on: wheat (Triticum aestivum); assay: Test B pre-/postemergence plant response; conditions: for plant injury at 31 g/ha / plant injury at 62 g/ha: Triticum aestivum, read-out: Plant response rating, Wheat; for plant injury at 31 g/ha: 31 g ai/ha; for plant injury at 62 g/ha: 62 g ai/ha, 100 complete control
Method in brief: as §1

[4] = tested on: johnsongrass (Sorghum halepense); assay: Test B pre-/postemergence plant response; conditions: for pest or weed control at 31 g/ha / pest or weed control at 62 g/ha: Sorghum halepense, read-out: Plant response rating, Johnsongrass; for pest or weed control at 31 g/ha: 31 g ai/ha; for pest or weed control at 62 g/ha: 62 g ai/ha, 100 complete control
Method in brief: as §1

[5] = tested on: Russian thistle (Salsola iberica); assay: Test B pre-/postemergence plant response; conditions: Preemergence
Method in brief: as §1

[6] = tested on: surinam grass (Brachiaria decumbens); assay: Test B pre-/postemergence plant response; conditions: for pest or weed control at 31 g/ha / pest or weed control at 62 g/ha: Urochloa decumbens, read-out: Plant response rating, Surinam Grass; for pest or weed control at 31 g/ha: 31 g ai/ha; for pest or weed control at 62 g/ha: 62 g ai/ha, 100 complete control
Method in brief: as §1

[7] = tested on: windgrass (Apera spica-venti); assay: Test B postemergence plant response; conditions: for Windgrass plant response rating: postemergence, 0-100 scale; for Plant response rating, Windgrass: Postemergence
Method in brief: (§2)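 Compounds applied after emergence to 2–18 cm plants; response read visually 13–15 days later on 0 (none) to 100 (complete control); a dash marks no result.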

[8] = tested on: winter barley (Hordeum vulgare); assay: Test B postemergence plant response; conditions: for Plant response rating, Barley: Postemergence, scale 0 to 100, 0 no effect, 100 complete control
Method in brief: as §2

[9] = tested on: chickweed (Stellaria media); assay: Test B postemergence plant response; conditions: for Plant response rating, Chickweed: Postemergence
Method in brief: as §2

[10] = post-emergence, Postemergence, scale 0 to 100
[11] = post-emergence, Postemergence, scale 0 to 100, 0 no effect
[12] = pre-emergence, Preemergence, scale 0 to 100 (0 no effect, 100 complete control)
[13] = pre-emergence, Preemergence, 0 to 100 scale, 0 no effect
[14] = Preemergence, 8 g ai/ha, scale 0 to 100 (0 no effect, 100 complete control)
[15] = Preemergence, 16 g ai/ha, scale 0 to 100
[16] = 8 g ai/ha, postemergence, 0-100 scale
[17] = 16 g ai/ha, postemergence, 0-100 scale
[18] = 62 g ai/ha, scale 0 to 100, 0 no effect, 100 complete control

SMILES: Cc1nn(C)c(=O)c(-c2nc(-c3ccc(Cl)cc3)sc2C)c1O [Compound 79, 4-[2-(4-chlorophenyl)-5-methyl-4-thiazolyl]-5-hydroxy-2,6-dimethyl-3(2H)-pyridazinone]
- pest or weed control at 31 g/ha [1, 10]: 0%
- pest or weed control at 62 g/ha [1, 11]: 0%
- pest or weed control at 31 g/ha [1, 12]: 0%
- pest or weed control at 62 g/ha [1, 13]: 0%
- Morningglory plant response rating [1, 14]: 0
- Morningglory plant response rating [1, 15]: 0
- Cocklebur plant response rating [2, 16]: 0
- Cocklebur plant response rating [2, 14]: 0
- Cocklebur plant response rating [2, 15]: 0
- pest or weed control at 16 g/ha ([2]; Xanthium strumarium, post-emergence, Postemergence, 16 g ai/ha, scale 0 to 100, read-out: Plant response rating, Cocklebur): 0%
- pest or weed control at 31 g/ha ([2]; Xanthium strumarium, post-emergence, Postemergence, scale 0 to 100, read-out: Plant response rating, Cocklebur): 0%
- pest or weed control at 62 g/ha ([2]; Xanthium strumarium, post-emergence, Postemergence, scale 0 to 100, 0 no effect, read-out: Plant response rating, Cocklebur): 0%
- pest or weed control at 31 g/ha ([2]; Xanthium strumarium, pre-emergence, Preemergence, scale 0 to 100 (0 no effect, 100 complete control), read-out: Plant response rating, Cocklebur): 0%
- pest or weed control at 62 g/ha ([2]; Xanthium strumarium, pre-emergence, Preemergence, 0 to 100 scale, 0 no effect, read-out: Plant response rating, Cocklebur): 0%
- Wheat plant response rating [3, 16]: 0
- Wheat plant response rating [3, 17]: 20
- Wheat plant response rating [3, 14]: 0
- Wheat plant response rating [3, 15]: 0
- plant injury at 31 g/ha [3, 10]: 60%
- plant injury at 62 g/ha [3, 11]: 85%
- plant injury at 31 g/ha [3, 12]: 0%
- plant injury at 62 g/ha [3, 13]: 0%
- Johnsongrass plant response rating [4, 16]: 85
- Johnsongrass plant response rating [4, 17]: 90
- Johnsongrass plant response rating [4, 14]: 65
- Johnsongrass plant response rating [4, 15]: 85
- pest or weed control at 31 g/ha [4, 10]: 100%
- pest or weed control at 62 g/ha [4, 11]: 100%
- pest or weed control at 31 g/ha [4, 12]: 100%
- pest or weed control at 62 g/ha [4, 13]: 100%
- Russian Thistle plant response rating ([5]; 8 g ai/ha, scale 0 to 100 (0 no effect, 100 complete control)): 0
- Plant response rating, Russian Thistle ([5]; 31 g ai/ha, scale 0 to 100 (0 no effect, 100 complete control)): 0
- Plant response rating, Russian Thistle ([5]; 62 g ai/ha, 0 to 100 scale, 0 no effect, 100 complete control): 0
- Russian Thistle plant response rating ([5]; 16 g ai/ha, scale 0 to 100): 0
- Surinam Grass plant response rating [6, 16]: 65
- Surinam Grass plant response rating [6, 17]: 70
- Surinam Grass plant response rating [6, 14]: 75
- Surinam Grass plant response rating [6, 15]: 85
- pest or weed control at 31 g/ha [6, 10]: 75%
- pest or weed control at 62 g/ha [6, 11]: 85%
- pest or weed control at 31 g/ha [6, 12]: 100%
- pest or weed control at 62 g/ha [6, 13]: 100%
- Windgrass plant response rating ([7]; 8 g ai/ha): 0
- Windgrass plant response rating ([7]; 16 g ai/ha): 50
- Plant response rating, Windgrass ([7]; 31 g ai/ha, scale 0 to 100): 50
- Plant response rating, Windgrass [7, 18]: 70
- Barley plant response rating [8, 16]: 0
- Plant response rating, Barley ([8]; 16 g ai/ha): 10
- Plant response rating, Barley ([8]; 31 g ai/ha): 30
- Plant response rating, Barley ([8]; 62 g ai/ha): 40
- Chickweed plant response rating [9, 16]: 0
- Plant response rating, Chickweed ([9]; 16 g ai/ha, scale 0 to 100): 0
- Plant response rating, Chickweed ([9]; 31 g ai/ha, scale 0 to 100): 0
- Plant response rating, Chickweed [9, 18]: 0
